Test [1] deals with adult and geriatric patients, milder depression. The following applies: 6 weeks; pooled data of 37 trials of fluoxetine and venlafaxine; cited from earlier work.
For test [2] the test system is unchanged. Description: Gibbons et al. 2012 synthesis of 37 placebo controlled double-blind randomized trials, HDRS-17 outcome. Type of test: in vivo, human. The settings on record: 6 weeks; converted from HDRS-17 with the 24% increased range of the 21 item scale; pooled fluoxetine and venlafaxine.

Consider two molecules from patent US20220313728A1 (priority 2021, published 2022).

For the molecule `CNCCC(Oc1ccc(C(F)(F)F)cc1)c1ccccc1` (stereo not shown) [fluoxetine], in test [1], the “Estimated separation between active treatment and placebo control (HDRS-17)” value is −2.55 HDRS-17 units. Besides, in test [2], the “Equivalent difference on the HDRS-21” value was −3.16 unit.
Regarding `COc1ccc(C(CN(C)C)C2(O)CCCCC2)cc1` (stereo not shown) [venlafaxine], the “Estimated separation between active treatment and placebo control (HDRS-17)” value in test [1] is given as −2.55 HDRS-17 units. For the same molecule, in test [2], the “Equivalent difference on the HDRS-21” value is −3.16 unit.
